Experimental data published in patent US6297250A, “Pyrimidopyrimidine compounds” (Newcastle University Ventures Limited, priority 1997, dated 2001).
Several values for one entry are separate records, joined by “and”; a condition that tells them apart may be missing. Equal entries are not always repeated. Where two headings read alike, the source gives them in different places.

What was measured:
[1] = system: A549; details: earlier experiments; cited from earlier work
[2] = system: MCF7; details: earlier experiments; cited from earlier work
[3] = system: L1210 cells; test: Nucleoside transport inhibition assay: inhibition of 3H-thymidine uptake, with or without AGP or HSA; assay type: cell-based, murine; details: for inhibition at 1 µM: L1210, 1 μM compound; for inhibition at 10 µM: L1210, 10 μM compound; for inhibition at 0.1 µM: L1210, 0.1 μM compound
Experimental: In vitro activity. […] For testing the compounds an established nucleoside transport assay involving measurement of thymidine uptake was adapted. Murine leukaemia L1210 cells were used in this assay as their nucleoside transport characteristics are well known. This assay for measuring thymidine uptake used a modification of the rapid mixing technique of Wohleheuter, R. […] Materials used included a transport buffer comprising 130 mM NaCl, 5 mM KC1, 1 mM MgCl, 5 mM NaH2 PO4, 10 mM glucose and 10 mM HEPES. This buffer was made up as sterile 5× concentrate and reconstituted in distilled water and adjusted to pH 7.4 immediately prior to carrying out the assay. […] The supernatant was aspirated and the cells were washed with ice-cold transport buffer and centrifuged again at 1000 rpm for 5 minutes at 4° C. The supernatant was removed and the cells were resuspended in ice-cold transport buffer to give a final cell density of 2-4×10^7 cells/mi. Cells were left on ice for 30 minutes recovery prior to starting the assay. […] The suspension was mixed well and 100 μl was layered onto 150 μl silicone oil (9:11 Dow Corning 556 (Sp.Gr. 0.98):Dow Corning 550 (Sp.Gr. 1.068) (final Sp.Gr. 1.028) overlaying 50 μl 3M KOH in 6 replicate 0.5 ml microfuge tubes. […] The tubes were immediately transferred to a microfuge (Eppendorf) and spun at 12000 rpm for 2 minutes to pellet the cells through the oil and into the KOH. The tubes were capped and the cells left to solubilise in the KOH for 1 hour. Cell number and viability for each run was determined by haemocytometer counting using trypan blue exclusion. […] The tubes were capped and cut in the oil layer such that the bottom portion (cells solubilised in KOH) fell into a 20 ml scintillation vial. 1 ml 0.25M acetic acid followed by 1 ml air was injected into the tube using a 2 ml syringe and 23-gauge needle to disperse and neutralise the KOH-solubilisedcells. 10 ml of Optiphase HiSafe™ scintillant was added and the vials capped and shaken. […] The [^14 C]:[^3 H] ratio was used to calculate the amount of non-transported contaminating [^3 H]thymidine in the extracellular space.

[4] = system: A549; test: Prevention of hypoxanthine rescue from antifolate growth inhibition (sulphorhodamine B); assay type: cell-based; details: 3 μM NU3076, 10 μM hypoxanthine
Experimental: (§1) For example, in investigating the compound NU3076, two lung cancer cell lines: A549 and COR L23 and two breast cancer cell lines MCF7 and MDA MB231 were selected for study. All cell lines were adapted to growth in dialysed serum as previously referred to. […] Cells were exposed to varying concentrations of LY309887 in the presence or absence of 10 μM hypoxanthine, with or without 3 μM NU3076. At the end of the exposure period the cells were fixed and stained with sulphorhodamine B. Hypoxanthine protected all the cell lines from LY309887 growth inhibition.

[5] = system: MCF7; test: as above; assay type: cell-based; details: 3 μM NU3076, 10 μM hypoxanthine
Experimental: as §1

[6] = Mus musculus, +5 mg/ml AGP vs no AGP, read-out: % Reduction (of inhibition by AGP)
[7] = Mus musculus, +5 mg/ml AGP, read-out: % Inhibition of 3H-thymidine uptake, +5 mg/ml AGP
[8] = Mus musculus, no AGP, read-out: % Inhibition of 3H-thymidine uptake, No AGP
[9] = +5 mg/ml AGP, compound concentration not assignable from the table
[10] = 0.1 μM compound, no AGP, 0.1 µM

SMILES	IC50 ([3]; Mus musculus, L1210, no AGP)	IC50 ([3]; no AGP)	% Inhibition of 3H-thymidine uptake, No AGP ([3]; 1 μM compound, no AGP, 1 µM)	inhibition at 1 µM [3, 8]	inhibition at 10 µM [3, 8]	also measured
OCCN(CCO)c1nc(N2CCCCC2)c2nc(N(CCO)CCO)nc(N3CCCCC3)c2n1 [NU3003, 2,6-bis(diethanolamino)-4,8-dipiperidinopyrimidopyrimidine, reference compound]						Block of hypoxanthine rescue from lometerxol growth inhibition [1]: blocked hypoxantine rescue; Block of hypoxanthine rescue from lometerxol growth inhibition [2]: blocked hypoxantine rescue
COc1ccc(CNc2nc(N(CCO)CCO)nc3c(NCc4ccc(OC)cc4)nc(N(CCO)CCO)nc23)cc1 [NU3076, 2,6-bis (Diethanolamino)-4,8-di[(4'-methoxybenzyl)amino]pyrimidopyrimidine]	0.253 ± 0.075 µM		56 ± 10%	65 ± 11%	96 ± 8%	% Inhibition of 3H-thymidine uptake, +40 mg/ml HSA ([3]; 3 h): 89 ± 10%; inhibition at 1 µM [3, 6]: 18%; inhibition at 1 µM [3, 7]: 46 ± 8%; inhibition at 10 µM [3, 6]: 7%; inhibition at 10 µM [3, 7]: 89 ± 14%; Effect of AGP on the inhibition of thymidine uptake ([3]; in words): no significant reduction; Potency as inhibitor relative to dipyridamole ([3]; presence and absence of AGP, or of 40 mg/ml human serum albumin): more potent inhibitors than dipyridamole; Prevention of hypoxanthine rescue from LY309887 growth inhibition [4]: prevented hypoxanthine rescue; Prevention of hypoxanthine rescue from LY309887 growth inhibition [5]: prevented hypoxanthine rescue
COc1ccc(CN(C)c2nc(OCCCO)nc3c(N(C)Cc4ccc(OC)cc4)nc(OCCCO)nc23)cc1 [NU3090, 2,6-Di(3'-hydroxypropoxy)-4,8-di[(N-4'-methoxybenzylmethyl)amino]pyrimidopyrimidine]		0.22 µM and 0.24 µM	74 ± 18% and 69 ± 19%			% Reduction (of inhibition by AGP) ([3]; 1 μM compound, +5 mg/ml AGP vs no AGP): 53%; % Inhibition of 3H-thymidine uptake, +5 mg/ml AGP ([3]; 1 μM compound, +5 mg/ml AGP, 1 µM): 32 ± 10% and 32%; % Inhibition of 3H-thymidine uptake, No AGP ([3]; 10 μM compound, no AGP): 100 ± 0%
CCCOc1nc(N(C)Cc2ccccc2)c2nc(OCCC)nc(N(C)Cc3ccccc3)c2n1 [NU3091, 2,6-Di(n)propoxy-4,8-di[(N-benzylmethyl)amino]-pyrimidopyrimidine]					8.2 ± 1.1%	% Inhibition of 3H-thymidine uptake, No AGP ([3]; 1 μM compound, no AGP): Inactive
COCCOc1nc(N(C)Cc2ccccc2)c2nc(OCCOC)nc(N(C)Cc3ccccc3)c2n1 [NU3092, 2,6-Di(-2'-methoxyethoxy)-4,8-di[(N-benzylmethyl)amino]-pyrimidopyrimidine]	5.9 µM	3.8 µM		17 ± 8%	68 ± 8%	
COCCOc1nc(N2CCCCC2)c2nc(OCCOC)nc(N3CCCCC3)c2n1 [NU3093, 2,6-Di(-2'-methoxyethoxy)-4,8-dipiperidinopyrimidopyrimidine]	4.6 µM			20 ± 6%	63%	% Inhibition of 3H-thymidine uptake, No AGP ([3]; 10 μM compound, no AGP, 10 µM): 68%
COCCOc1nc(N(Cc2ccccc2)Cc2ccccc2)c2nc(OCCOC)nc(N(Cc3ccccc3)Cc3ccccc3)c2n1 [NU3094, 2,6-di(-2-methoxyethoxy)-4,8-bis(dibenzylamino) pyrimidopyrimidine]				9 ± 10%	15 ± 4%	
COCCOc1nc(NCc2ccccc2)c2nc(OCCOC)nc(NCc3ccccc3)c2n1 [NU3095, 2,6-di(-2-methoxyethoxy)-4,8-dibenzylaminopyrimidopyrimidine]	2.4 µM			31.2%	78.4 ± 4.2%	
OCCNc1nc(NCc2ccccc2)c2nc(NCCO)nc(NCc3ccccc3)c2n1 [NU3101, 2,6-Di-(2-hydroxyethylamino)-4,8-dibenzylaminopyrimidopyrimidine]				58%		inhibition at 0.1 µM ([3]; Mus musculus, no AGP): 2%

Second part, led by results:

IC50 ([3]; Mus musculus, L1210, no AGP)	IC50 ([3]; no AGP)	SMILES	% Inhibition of 3H-thymidine uptake, No AGP ([3]; 1 μM compound, no AGP, 1 µM)	inhibition at 1 µM [3, 8]	inhibition at 10 µM [3, 8]	also measured
0.75 µM		COc1ccc(CN(C)c2nc(OCCCO)nc3c(N(C)Cc4ccc(OC)c(OC)c4)nc(OCCCO)nc23)cc1OC [NU3096, 2,6-di(-3-hydroxypropoxy)-4,8-bis[(-3,4-dimethoxybenzyl)-N-methylamino]pyrimidopyrimidine]		54 ± 2%		
0.46 µM	0.82 µM	COc1ccc(CNc2nc(OCCCO)nc3c(NCc4ccc(OC)cc4)nc(OCCCO)nc23)cc1 [NU3097, 2,6-di(-3-hydroxypropoxy)-4,8-di(-4-methoxybenzylamino)pyrimidopyrimidine]	62%	61 ± 8%		inhibition at 1 µM [3, 6]: 21%; inhibition at 1 µM [3, 7]: 49%
	1.87 µM	CN(Cc1ccccc1)c1nc(OCCO)nc2c(N(C)Cc3ccccc3)nc(OCCO)nc12 [NU3098, 2,6-di(-2-hydroxyethoxy)-4,8-di(N-methylbenzylamino)pyrimidopyrimidine]		44%		% Inhibition of 3H-thymidine uptake, No AGP ([3]; 10 μM compound, no AGP, 10 µM): 87 ± 11%
0.93 µM	1.2 µM	COc1ccc(CNc2nc(NCCO)nc3c(NCc4ccc(OC)cc4)nc(NCCO)nc23)cc1 [NU3099, 2,6-Di-(2-hydroxyethyl)amino-4,8-di-[4-methoxybenzyl]-aminopyrimidopyrimidine]	52% and 62% and 65%	54%		% Inhibition of 3H-thymidine uptake, +5 mg/ml AGP [3, 9]: 30% and 35%; inhibition at 0.1 µM ([3]; Mus musculus, no AGP): 5%
0.19 µM		COc1ccc(CN(C)c2nc(OCCCO)nc3c(N(C)Cc4ccc(OC)cc4)nc(OCCCO)nc23)cc1 [NU3100, 2,6-Di-(3-hydroxypropoxy)-4,8-di-(N-[4-methoxybenzyl]-N-methyl)aminopyrimidopyrimidine]		88%		
0.98 µM	0.84 µM	COc1ccc(CN(C)c2nc(N(CCO)CCO)nc3c(N(C)Cc4ccc(OC)cc4)nc(N(CCO)CCO)nc23)cc1 [NU3102, 2,6-bis-Diethanolamino-4,8-di-(N-[4-methoxybenzyl]-N-methyl)aminopyrimidopyrimidine]	57%	51%		% Inhibition of 3H-thymidine uptake, No AGP [3, 10]: 20%; % Inhibition of 3H-thymidine uptake, No AGP ([3]; 10 μM compound, no AGP): insoluble; inhibition at 0.1 µM ([3]; Mus musculus, no AGP): 23%
	1.01 µM and 0.8 µM	CN(Cc1ccccc1)c1nc(OCCO)nc2c(N(C)Cc3ccccc3)nc(OCCO)nc12 [NU3103, 2,6-Di-(2-hydroxyethoxy)-4,8-di-(N-benzyl-N-methyl)aminopyrimidopyrimidine]	50% and 60%		90%	% Inhibition of 3H-thymidine uptake, No AGP [3, 10]: 18%; % Inhibition of 3H-thymidine uptake, No AGP ([3]; 10 μM compound, no AGP, 10 µM): 84%; % Inhibition of 3H-thymidine uptake, +5 mg/ml AGP [3, 9]: 21% and 23%; inhibition at 0.1 µM ([3]; Mus musculus, no AGP): 12%
